From patent US20250042891A1, “Compound containing structure of a heteroaromatic ring, pharmaceutical composition thereof and application thereof” (SHANGHAI YINGLI PHARMACEUTICAL CO., LTD, priority 2023, published 2025)

Tests used:
[1] = target: PARG (389-976) (Homo sapiens (Human), UniProt Q86W56); experiment: PARG enzyme inhibition assay (TR-FRET); type: biochemical
Protocol: PARG in vitro assays were conducted in standard 384-well plates in a total volume of 15 μL. 5 μL of PARG (389-976) (manufactured by Chempartner Chemical Co., Ltd.) in buffer (50 mM Tris-HCL 7.5, 30 mM KCl, 1 mM EDTA, 3 mM DTT, tween-20 0.01%, BSA 0.025%) was added at a final concentration of 1.5 pM to the 384-well plates containing the compounds to be tested, which was incubated for 30 min at room temperature. To the above mixture was added 5 μL Bio PARylated His-TEV-PARP1(2-1014) substrate (manufactured by Chempartner Chemical Co., Ltd.) at a final concentration of 12 nM, after addition, the resulting mixture was incubated for 30 minutes at room temperature. Then to the mixture was added detection reagent (5 μL) which was buffered with 50 mM Tris-HCL 7.5, 30 mM KCl, 1 mM EDTA, 3 mM DTT, tween-20 0.01%, BSA 0.025%, and consisted of 3 μM of compound PDD00017273 and 9 nM Mab anti-6HIS XL665 (Cisbio: 61HISXLA) and 0.9 nM streptavidin affinity terbium cryptate (Cisbio:610SATLA), all at 3× working concentrations (final concentrations of 1 μM, 3 nM and 0.3 nM, respectively). After 120 min incubation in the dark at room temperature, TR-FRET signals were measured at Ex 340 and Em 665 and Em 615. The ratio for each well was calculated as Em 665/Em 615 and the compound inhibition rate was calculated based on the obtained data.

[2] = system: NCI-H460; experiment: CTG assay for proliferation inhibition of cell lines; type: cell-based; settings: NCI-H460, 7 days, CellTiter Glo
Protocol: (§1) The assay was conducted on either 384-well plates or 96-well plates. The procedures are as follows:
(§2) The cell suspensions were added to 384- or 96-well plates (384-well plate: 50 μL; 96-well plate: 100 μL) except for peripheral wells. The plates were incubated in a carbon dioxide incubator overnight, HCC1395, HCC1428 and NCI-H460 were placed in a carbon dioxide incubator of 5%, […] overnight. Prepared compounds (10 concentration gradients by serial 3-fold dilution) were added to the wells using the HPD300 micro-dosing instrument. The cell plates were incubated in a carbon dioxide incubator for 7 days. HCC1395, HCC1428 and NCI-H460 were incubated in a 5%, 37° CO2 incubator. On the day of plate measurement, 384- or 96-well plates were first equilibrated at room temperature for 10-30 minutes, then to the 384- or 96-well plate was added CellTiter Glo reagent (384-well plate: 25 μL; 96-well plate: 100 μL), shaken for 10 minutes away from light, and incubated for 10 minutes. The incubated plates were placed into Victor NIVO reader plates, and the pharmacodynamic inhibition curves were plotted and IC50 values were calculated using XLFit.

[3] = system: HCC1395; experiment: as above; type: cell-based; settings: HCC1395, 7 days, CellTiter Glo
Protocol: as §1, §2

[4] = system: HCC1428; experiment: as above; type: cell-based; settings: HCC1428, 7 days, CellTiter Glo
Protocol: as §1, §2

[5] = class symbol, Bio PARylated His-TEV-PARP1 substrate, TR-FRET
[6] = numeric value in parentheses under the class symbol

Chain of PARG (389-976) (Q86W56 389-976): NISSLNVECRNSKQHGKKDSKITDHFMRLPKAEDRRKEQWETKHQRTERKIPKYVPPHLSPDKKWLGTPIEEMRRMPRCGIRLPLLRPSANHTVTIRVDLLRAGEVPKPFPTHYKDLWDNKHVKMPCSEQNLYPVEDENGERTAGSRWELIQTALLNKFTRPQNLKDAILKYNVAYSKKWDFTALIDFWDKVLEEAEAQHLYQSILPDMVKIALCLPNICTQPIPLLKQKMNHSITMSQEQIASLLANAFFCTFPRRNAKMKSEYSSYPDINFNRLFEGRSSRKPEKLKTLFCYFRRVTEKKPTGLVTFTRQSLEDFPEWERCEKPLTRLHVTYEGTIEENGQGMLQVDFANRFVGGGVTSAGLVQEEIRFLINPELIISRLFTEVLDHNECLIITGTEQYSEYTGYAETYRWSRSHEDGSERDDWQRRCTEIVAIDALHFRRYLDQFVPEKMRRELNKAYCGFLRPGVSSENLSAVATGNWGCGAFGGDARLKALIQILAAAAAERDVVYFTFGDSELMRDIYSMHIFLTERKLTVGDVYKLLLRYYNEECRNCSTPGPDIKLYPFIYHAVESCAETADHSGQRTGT

Compound: CC(C)S(=O)(=O)N1CCC(c2cc(S(=O)(=O)NC3(C#N)CC3)cc3c(-c4nnc(C(F)F)s4)nn(C)c23)=C(CO)C1 [Compound 36]
- IC50 [1, 5]: < 1 nM
- IC50 [2]: 0.0729 µM
- IC50 [3]: 0.127 µM
- IC50 [4]: 0.0978 µM

Compound: CC(C)S(=O)(=O)N1CC=C(c2cc(S(=O)(=O)NC3(CF)CC3)cc3c(-c4nnc(C(F)F)s4)nn(C)c23)CC1 [Compound 18]
- IC50 [1, 5]: < 1 nM
- IC50 [1, 6]: 0.12 nM
- IC50 [2]: 0.0408 µM
- IC50 [3]: 0.0423 µM
- IC50 [4]: 0.215 µM

Compound: COCC(C)S(=O)(=O)N1CC=C(c2cc(S(=O)(=O)NC3(C#N)CC3)cc3c(-c4nnc(C(F)F)s4)nn(C)c23)CC1 (stereo not drawn) [Compound 23]
- IC50 [1, 5]: < 1 nM
- IC50 [2]: 0.124 µM
- IC50 [3]: 0.183 µM
- IC50 [4]: 0.466 µM

Compound: CC(C)S(=O)(=O)c1ccc(-c2cc(S(=O)(=O)NC3(C#N)CC3)cc3c(-c4nnc(C(F)F)s4)nn(C)c23)cc1 [Compound 9]
- IC50 [1, 5]: 1 to 10 nM
- IC50 [2]: 0.147 µM
- IC50 [3]: 0.197 µM
- IC50 [4]: 1.17 µM

Compound: CN=S(=O)(C(C)C)N1CC=C(c2cc(S(=O)(=O)NC3(C#N)CC3)cc3c(-c4nnc(C(F)F)s4)nn(C)c23)CC1 (stereo not drawn) [Compound 40]
- IC50 [1, 5]: < 1 nM
- IC50 [2]: 0.261 µM
- IC50 [3]: 0.3 µM
- IC50 [4]: 0.454 µM

Compound: CC(C)S(=O)(=O)N1Cc2cn(-c3cc(S(=O)(=O)NC4(C#N)CC4)cc4c(-c5nnc(C(F)F)s5)nn(C)c34)nc2C1 [Compound 52]
- IC50 [1, 5]: 1 to 10 nM
- IC50 [3]: 1.38 µM
- IC50 [4]: 1.06 µM

Compound: Cn1nc(-c2nnc(C(F)F)s2)c2cc(S(=O)(=O)NC3(C#N)CC3)cc(C3=CCN(S(=O)(=O)C4CCNCC4)CC3)c21 [Compound 39]
- IC50 [1, 5]: < 1 nM
- IC50 [2]: 0.429 µM
- IC50 [3]: 0.827 µM
- IC50 [4]: 0.369 µM

Compound: CC(C)S(=O)(=O)N1CCC(c2cc(S(=O)(=O)NC3(C#N)CC3)cc3c(-c4nnc(C(F)(F)F)s4)nn(C)c23)=C(CO)C1 [Compound 73]
- IC50 [1, 5]: < 1 nM
- IC50 [3]: 0.0462 µM
- IC50 [4]: 0.0576 µM

Compound: CC(C)S(=O)(=O)c1ccc(-c2cc(S(=O)(=O)NC3(C#N)CC3)cc3c(-c4nnc(C(F)F)s4)nn(C)c23)cn1 [Compound 24]
- IC50 [1, 5]: < 1 nM
- IC50 [2]: 0.493 µM
- IC50 [3]: 0.65 µM
- IC50 [4]: 0.578 µM

Compound: CC(C)S(=O)(=O)N1CC=C(c2cc(S(=O)(=O)NC3(C#N)CC3)cc3c(-c4nnc(C(F)(F)F)s4)nn(CC(F)(F)F)c23)CC1 [Compound 58]
- IC50 [1, 5]: 1 to 10 nM
- IC50 [2]: 0.216 µM
- IC50 [3]: 0.253 µM
- IC50 [4]: 0.201 µM

Compound: Cn1nc(-c2nnc(C(F)F)s2)c2cc(S(=O)(=O)NC3(C#N)CC3)cc(C3=CCN(S(=O)(=O)C4CCOCC4)CC3)c21 [Compound 5]
- IC50 [1, 5]: < 1 nM
- IC50 [1, 6]: 0.33 nM
- IC50 [2]: 0.183 µM
- IC50 [3]: 0.222 µM
- IC50 [4]: 0.132 µM

Compound: CC(C)S(=O)(=O)C1CC=C(c2cc(S(=O)(=O)NC3(C#N)CC3)cc3c(-c4nnc(C(F)F)s4)nn(C)c23)CC1 (stereo not drawn) [Compound 31]
- IC50 [1, 5]: 1 to 10 nM
- IC50 [1, 6]: 1.14 nM
- IC50 [2]: 0.457 µM
- IC50 [3]: 0.641 µM
- IC50 [4]: 0.507 µM

Compound: CC(C)[S+]([O-])N1CC=C(c2cc(S(=O)(=O)NC3(C#N)CC3)cc3c(-c4nnc(C(F)F)s4)nn(C)c23)CC1 (stereo not drawn) [Compound 25]
- IC50 [1, 5]: < 1 nM
- IC50 [1, 6]: 0.34 nM
- IC50 [2]: 0.185 µM
- IC50 [3]: 0.206 µM
- IC50 [4]: 0.152 µM

Compound: CC(C)S(=N)(=O)N1CC=C(c2cc(S(=O)(=O)NC3(C#N)CC3)cc3c(-c4nnc(C(F)F)s4)nn(C)c23)CC1 (stereo not drawn) [Compound 33]
- IC50 [1, 5]: < 1 nM
- IC50 [2]: 0.5 µM
- IC50 [3]: 0.691 µM
- IC50 [4]: 0.616 µM

Compound: CC(C)S(=O)(=O)N1CC=C(c2cc(S(=O)(=O)NC3(C)CC3)cc3c(-c4nnc(C(F)F)s4)nn(C)c23)CC1 [Compound 19]
- IC50 [1, 5]: < 1 nM
- IC50 [1, 6]: 0.12 nM
- IC50 [2]: 0.0414 µM
- IC50 [3]: 0.0532 µM
- IC50 [4]: 0.196 µM

Compound: CC(C)S(=O)(=O)N1CC=C(c2cc(S(=O)(=O)NC3(C#N)CC3)cc3c(-c4noc(C(F)(F)F)n4)nn(C)c23)CC1 [Compound 53]
- IC50 [1, 5]: < 1 nM
- IC50 [3]: 0.392 µM
- IC50 [4]: 0.207 µM

Compound: Cn1nc(-c2nnc(C(F)F)s2)c2cc(S(=O)(=O)NC3(C#N)CC3)cc(C3=CCN(S(=O)(=O)C4(C)CC4)CC3)c21 [Compound 14]
- IC50 [1, 5]: < 1 nM
- IC50 ([2]; Homo sapiens, 168 h): 0.122 µM
- IC50 ([3]; Homo sapiens, 168 h): 0.126 µM
- IC50 ([4]; Homo sapiens, 168 h): 0.399 µM

Compound: CC(C)S(=O)(=O)N1CCC(c2cc(S(=O)(=O)NC3(C#N)CC3)cc3c(-c4nnc(C(F)(F)F)s4)nn(C)c23)=C(C(N)=O)C1 [Compound 55]
- IC50 [1, 5]: < 1 nM
- IC50 [3]: 0.836 µM
- IC50 [4]: 0.208 µM

Compound: CC(C)[S+]([O-])c1ccc(-c2cc(S(=O)(=O)NC3(C#N)CC3)cc3c(-c4nnc(C(F)(F)F)s4)nn(C)c23)nc1 (stereo not drawn) [Compound 48]
- IC50 [1, 5]: 10 to 100 nM
- IC50 [2]: 2.05 µM
- IC50 [3]: 2.04 µM

Compound: Cn1nc(-c2nnc(C(F)F)s2)c2cc(S(=O)(=O)NC3(C#N)CC3)cc(C3=CCN(S(=O)(=O)C4COC4)CC3)c21 [Compound 22]
- IC50 [1, 5]: < 1 nM
- IC50 [2]: 0.714 µM
- IC50 [3]: 0.605 µM
- IC50 [4]: 1.09 µM

Compound: CC(C)S(=O)(=O)N1CC=C(c2cc(S(=O)(=O)NC3(C#N)CC3)cc3c(-c4nnc(C(F)(F)F)s4)nn(Cc4ccncc4)c23)CC1 [Compound 59]
- IC50 [1, 5]: 1 to 10 nM
- IC50 ([2]; Homo sapiens, 168 h): 0.27 µM
- IC50 ([3]; Homo sapiens, 168 h): 0.357 µM

Compound: CC(C)S(=O)(=O)N1CC=C(c2cc(S(=O)(=O)NC3(C#N)CC3)cc3c(-c4nnc(C(F)(F)F)s4)nn(C)c23)CC1 [Compound 15]
- IC50 [1, 5]: < 1 nM
- IC50 [2]: 0.0561 µM
- IC50 [3]: 0.0955 µM
- IC50 [4]: 0.117 µM

Compound: CC(C)S(=O)(=O)N1CC=C(c2cc(S(=O)(=O)NC3(C#N)CC3)cc3c(-c4nnc(C(F)F)s4)nn(C)c23)C(F)C1 (stereo not drawn) [Compound 69]
- IC50 [1, 5]: < 1 nM
- IC50 [2]: 0.292 µM
- IC50 [3]: 0.296 µM

Compound: CC(C)S(=O)(=O)N1CC=C(c2cc(S(=O)(=O)NC3(C#N)CC3)cc3c(-c4nnc(C(F)(F)F)s4)nn(CC4CNC4)c23)CC1 [Compound 61]
- IC50 [1, 5]: < 1 nM
- IC50 [3]: 1.63 µM
- IC50 [4]: 1.68 µM

Compound: CC(C)S(=O)(=O)N1CC=C(c2cc(S(=O)(=O)NC3(C#N)CC3)cc3c(-c4nnc(C(F)F)s4)n(CC4CC4)nc23)CC1 [Compound 44]
- IC50 [2]: 1.07 µM
- IC50 [3]: 1.05 µM

Compound: CC(C)S(=O)(=O)N1CC=C(c2cc(S(=O)(=O)NC3(C#N)CC3)cc3c(-c4nnc(C(F)F)s4)nn(CCN(C)C)c23)CC1 [Compound 26]
- IC50 [1, 5]: < 1 nM
- IC50 [1, 6]: 0.16 nM
- IC50 [2]: 0.139 µM
- IC50 [4]: 0.0865 µM

Compound: CC(C)S(=O)(=O)N1CCC(c2cc(S(=O)(=O)NC3(C#N)CC3)cc3c(-c4nnc(C(F)F)s4)nn(C)c23)=C(CN(C)C)C1 [Compound 71]
- IC50 [1, 5]: < 1 nM
- IC50 [3]: 0.308 µM
- IC50 [4]: 0.342 µM
